“Also recorded” adds a separate entry of the source.
Key:
Format in all cases: cell-based, human
NSCLC PDOTS = test: Ex vivo culture of patient-derived organotypic tumor spheroids (PDOTS); cytokine profiling and viability; details: in contrast to NSCLC-2; for production of multiple cytokines/chemokines, especially CXCL10: NSCLC-1 PDOTS (SPARCS high features); for sensitization to ex vivo PD-1 blockade with nivolumab: NSCLC-1 PDOTS, viability Day 6
Description: PDOTS from human NSCLC resection specimens were generating according to the recent publication^21. Briefly, fresh tumor specimens were minced and resuspended in media with collagenase type IV (Life Technologies, Carlsbad, CA). After digestion, samples were strained over 100 μm filter and 40 μm filters to generate S1 (>100 μm), S2 (40-100 μm), and S3 (<40 μm) spheroid fractions. S2 spheroid fraction was pelleted and resuspended in type I rat tail collagen (Corning, Corning, NY) at a concentration of 2.5 mg/mL. The spheroid-collagen mixture was then injected into the center gel region of the 3D microfluidic culture device. Collagen hydrogels containing PDOTS were hydrated with media and treated with anti-PD-1 (Nivolumab, 100 μg/mL), IFNγ (200 ng/mL), Poly (I:C) (0.5 μg/mL) or combination (Nivolumab+IFNγ Nivolumab+Poly (I:C)). The number of Live/Dead cells in each treatment condition was determined by Trypan Blue Exclusion method and plotted as percentage of viability.
(§1) Multiplex assays were performed utilizing the bead-based immunoassay approach Bio-Plex Pro™ Human Cytokine 40-plex Assay (Cat #171AK99MR2) on a Bio-plex 200 system (Cat #171000201) (Bio-Rad Laboratories, Hercules, CA) and the Human Cytokine/Chemokine Maganetic Bead Panel (Cat #HCYTMAG-60K-PX30) on a Luminex MAGPIX system (Merck Millipore, Billerica, MA). Conditioned media concentration levels [pg/ml] of each protein were derived from 5-parameter curve fitting models. Fold changes relative to the corresponding control were calculated and plotted as log 2FC. Lower and upper limits of quantitation (LLOQ/ULOQ) were imputed from standard curves for cytokines above or below detection.

H69AR cells [1] = test: Poly(I:C) transfection of H69AR cells; qRT-PCR; details: 72 h following transfection
Protocol: (§2) Total cellular RNA was extracted using the miRNeasy Mini Kit (Qiagen, Hilden, Germany) according to manufacturer's instructions. After extraction, 1 μg total RNA was used to generate cDNA with the SuperScript III First-Strand Synthesis SuperMix for qRT-PCR kit (Thermo Fisher Scientific, Waltham, MA). Quantitative reverse transcription PCR (qRT-PCR) of the indicated genes was performed using SYBR green PCR Master Mix (Applied Biosystems, Foster City, CA) and the Applied Biosystems 7300 Fast real-time PCR system and software. The relative expression was normalized with the expression of the housekeeping gene 36B4.
For Poly(I:C) dsRNA treatment experiments, H69ARsgCTRL and H69ARsgMAVS cells were plated in RPMI media, transfected with 0.5 μg/mL Poly(I:C) HMW (InvivoGen, Sand Diego, CA) using XtremeGene HP transfection reagent (Sigma-Aldrich, St. Louis, MO) and cultured for 72 hours. On day 3 after transfection, conditioned media was recovered and CXCL10 protein expression was quantified using Human CXCL10/IP-10 Quantikine ELISA kit (R&D Systems, Minneapolis, MN). RNA was extracted and expression levels of relevant genes were analyzed by qRT-PCR.

TNBC cell lines = test: CXCL10 secretion by TNBC cell lines treated with STING agonist; details: all TNBC cell lines, relative to a control
Protocol: TNBC cell lines were also assayed for their responsiveness to the STING agonist AduroS100. Cells were treated with AduroS100 or a control and CXCL10 levels secreted into the supernatant were measured.

A549 cells = test: Immunoblot of STING in KL cell lines with LKB1 reconstitution with or without DNMT inhibitor; details: A549 cells (KL DNMT high) with LKB1 reconstitution
Protocol: FIGS. 16A to 16C. FIG. 16A: Immunoblot of the indicated proteins in KL cell lines transduced with the indicated vector. FIG. 16B: Correlation between STING and DNMT1 expression in KL cell lines. FIG. 16C: Immunoblot of the indicated proteins in KL cell lines transduced with the indicated vector with or without 100 nM 5-aza-2′-deoxycytidine (DAC) treatment for 7 days.

[2] = system: H69AR cells, SPARCS high cell lines; test: IFN pulse-chase of SCLC and other cancer cell lines; qRT-PCR, immunoblot
Protocol: To test drug effects on gene expression or protein secretion, IFN-γ pulsed H69AR cells were treated with DMSO, 1 μM MRT67307 or 100 nM Ruxolitinib for 24, 48 and 72 hours.
(§3) Protein was isolated from cell lines and measured by BCA (Pierce Biotechnology). Protein extracts were subjected to polyacrylamide gel electrophoresis using the 4%-12% NuPAGE gel system (Invitrogen, Carlsbad, CA), transferred to PVDF (Millipore) membranes, and immunoblotted using antibodies that specifically recognize TBK1 (#3013), S172 pTBK1 (#5483), pERK1/2 (#4370), ERK1/2 (#9107), S473 pAKT (#4060), AKT (#9272), S396 pIRF3 (#4947), IRF3 (#4302), Y701 pSTAT1 (#9171), STAT1 (#9172), AXL (#8661), EZH2 (#5246), STING (#13647), MAVS (#3993), E-Cadherin (#3195), Vimentin (#5741), β-Actin (#4970), Tubulin (#2144) (Cell Signaling Technologies, Danvers, MA) and IKKε (#14907) (Sigma-Aldrich, St. Louis, MO).
as §2

H69 cells [3] = test: EZH2 inhibition of H69 cells followed by IFNγ exposure; SPARCS qRT-PCR and cytokine profiling; details: for reactivation / de-repression of SPARCS ERVs: 5 μM for 6 days, then IFNγ 24 h
Protocol: For EZH2 inhibition experiments, H69 cells were treated with 5 μM GSK126 for 6 days. Drug was replenished every 3 days with both suspension and adherent cells carried each time. After the GSK126 treatment period, equal numbers of DMSO-treated and GSK126-treated cells were exposed to either H2O or 200 ng/mL IFN-γ for 24 hours before harvesting of RNA or conditioned media (CM).
as §1, §2

H69 cells [4] = test: Immunoblot of STING in H69 cells after GSK126 treatment
Description: Immunoblot of STING, histone H3K27me3 and β-actin levels in H69 cells after GSK126 (EZH2 inhibitor) treatment at the indicated concentrations and for the indicated number of days.
as §3

H69AR cells [5] = test: IFNγ pulsed H69AR cells chased in media with drug; pSTAT1 immunoblot, CXCL10/ERV qRT-PCR, CXCL10 ELISA; details: 10 min IFNγ pulse, 24 h chase, 1 μM
Protocol: For IFN pulse experiments, cells were pulsed 10 minutes with IFN-γ 200 ng/mL or 10 ng/mL), IFN-α 10 000 U/mL), or IFN-β 10 000 U/mL), extensively washed, and chased in fresh media for an additional 24, 48 or 72 hours. To test drug effects on gene expression or protein secretion, IFN-γ pulsed H69AR cells were treated with DMSO, 1 μM MRT67307 or 100 nM Ruxolitinib for 24, 48 and 72 hours. Proteome Profiler™ Human Cytokine Array Kit (#ARY005B) and CXCL10 ELISA (#DIP100) (R&D Systems, Minneapolis, MN), were performed according to manufacturer's instructions. For cytokine array, conditioned media (CM) from SCLC cells at basal conditions was collected after 48 and 72 hours. For CXCL10 ELISA, CM from IFN-γ pulsed cells was collected after 72 hours. Total cellular RNA was extracted using the miRNeasy Mini Kit (Qiagen, Hilden, Germany) according to manufacturer's instructions. After extraction, 1 μg total RNA was used to generate cDNA with the SuperScript III First-Strand Synthesis SuperMix for qRT-PCR kit (Thermo Fisher Scientific, Waltham, MA). Quantitative reverse transcription PCR (qRT-PCR) of the indicated genes was performed using SYBR green PCR Master Mix (Applied Biosystems, Foster City, CA) and the Applied Biosystems 7300 Fast real-time PCR system and software. The relative expression was normalized with the expression of the housekeeping gene 36B4.

Poly(I:C)
production of multiple cytokines/chemokines, especially CXCL10 (NSCLC PDOTS): markedly enhanced; also recorded: markedly enhances CXCL10 production | sensitization to ex vivo PD-1 blockade with nivolumab (NSCLC PDOTS): sensitized; also recorded: sensitizes them to PD-1 blockade | SPARCS upregulation (H69AR cells [1]): SPARCS upregulation | induction of type I/II IFNs (H69AR cells [1]): Induction of type I/II IFNs was also confirmed

Nc1ncnc2c1ncn2[C@@H]1O[C@@H]2COP(O)(=S)O[C@@H]3C(O)[C@@H](COP(O)(=S)O[C@H]2[C@H]1O)O[C@H]3n1cnc2c(N)ncnc21 (some centres unmarked) [AduroS100]
CXCL10 levels secreted into the supernatant (TNBC cell lines): elevated levels; also recorded: increased CXCL10 production

Nc1ncn([C@H]2C[C@H](O)[C@@H](CO)O2)c(=O)n1 [DNMT inhibitor, 5-aza-2′-deoxycytidine]
STING expression (A549 cells): able to restore STING expression

IFNα
SPARCS upregulation (MLT1C49, MLT1A) ([2]; H69AR cells, 10 min pulse with chase): SPARCS upregulation

CC[C@H](C)n1cc(C)c2c(C(=O)NCc3c(C)cc(C)[nH]c3=O)cc(-c3ccc(N4CCNCC4)nc3)cc21 [GSK126]
reactivation / de-repression of SPARCS ERVs (H69 cells [3]): induced their reactivation | reactivation / de-repression of SPARCS ERVs (H69 cells [3]; listed as EZH2 inhibitor): de-repressed the same SPARCS as in H69AR cells | IFNγ induced cytokine secretion (H69 cells [3]; treatment over 6 days): enhanced | STING protein expression (H69 cells [4]): induces STING protein expression

O=C(NCCCNc1nc(Nc2cccc(CN3CCOCC3)c2)ncc1C1CC1)C1CCC1 [MRT67307]
effect on downstream CXCL10 expression (H69AR cells [5]): partially inhibited

B1: IFNγ: Recombinant human IFN-γ protein from R&D Systems (protein, UniProt P01579 24-161, looked up)
Interferon gamma: QDPYVKEAENLKKYFNAGHSDVADNGTLFLGILKNWKEESDRKIMQSQIVSFYFKLFKNFKDDQSIQKSVETIKEDMNVKFFNSNKKKRDDFEKLTNYSVTDLNVQRKAIHELIQVMAELSPAAKTGKRKRSQMLFRG
production of multiple cytokines/chemokines, especially CXCL10 (NSCLC PDOTS): markedly enhanced | sensitization to ex vivo PD-1 blockade with nivolumab (NSCLC PDOTS): sensitized | pTBK1, pIRF3 and pSTAT1 activation ([2]; H69AR but not H69 cells, pulse treatment): hyperactivated and sustained | induction of TRIM22 and MLT1C49 ([2]; H69AR cells, 10 minute pulse): marked induction | MLT1C49, CXCL10 and PD-L1 expression ([2]; SPARCS high cells relative to SPARCS low cells, pulse treatment): significantly induced
